From paper PMC6891286, “Towards the Development of an In vivo Chemical Probe for Cyclin G Associated Kinase (GAK)” (Molecules, 2019)

Experiments:
Test in all cases: KINOMEscan
Type in all cases: binding
Conditions in all cases: 35 at 1 µM; read-out: % inhibition
CSNK1G2 = biological target: T1, CSNK1G2 (Homo sapiens, UniProt P78368)
T1 construct: purchased Eurofins DiscoverX (KINOMEscan)
Description: (§1) KinomeScan Assay on 35 was performed as previously described at EuroFins DiscoverX (Fremont, CA, USA).

ERK3 = biological target: T2, ERK3 (Homo sapiens, UniProt Q16659)
T2 construct: purchased Eurofins DiscoverX (KINOMEscan)
Description: as §1

DYRK1A = biological target: T3, DYRK1A (Homo sapiens, UniProt Q13627)
T3 construct: purchased Eurofins DiscoverX (KINOMEscan)
Description: as §1

KIT(V559D,T670I) = biological target: T4, KIT(V559D,T670I) (Homo sapiens, UniProt P10721, T670I/V559D)
T4 construct: purchased Eurofins DiscoverX (KINOMEscan)
Description: as §1

PKN2 = biological target: T5, PKN2 (Homo sapiens, UniProt Q16513)
T5 construct: purchased Eurofins DiscoverX (KINOMEscan)
Description: as §1

TNIK = biological target: T6, TNIK (Homo sapiens, UniProt Q9UKE5)
T6 construct: purchased Eurofins DiscoverX (KINOMEscan)
Description: as §1

TAK1 = biological target: T7, TAK1 (Homo sapiens, UniProt O43318)
T7 construct: purchased Eurofins DiscoverX (KINOMEscan)
Description: as §1

YES = biological target: T8, YES (Homo sapiens, UniProt P07947)
T8 construct: purchased EuroFins DiscoverX (Fremont, CA, USA)
Description: as §1

[1] = biological target: T9, RSK3(Kin.Dom.1-N-terminal) (Homo sapiens, UniProt Q15349)
T9 construct: RSK3(Kin.Dom.1-N-terminal); purchased Eurofins DiscoverX (KINOMEscan)
Description: as §1

MYLK = biological target: T10, MYLK (Homo sapiens, UniProt Q15746)
T10 construct: purchased Eurofins DiscoverX (KINOMEscan)
Description: as §1

SGK3 = biological target: T11, SGK3 (Homo sapiens, UniProt Q96BR1)
T11 construct: purchased Eurofins DiscoverX (KINOMEscan)
Description: as §1

FGFR4 = biological target: T12, FGFR4 (Homo sapiens, UniProt P22455)
T12 construct: purchased Eurofins DiscoverX (KINOMEscan)
Description: as §1

[2] = biological target: T13, ABL1(Y253F)-phosphorylated (Homo sapiens, UniProt P00519, Y253F)
T13 construct: purchased Eurofins DiscoverX (KINOMEscan)
Description: as §1

PIK3CA(C420R) = biological target: T14, PIK3CA(C420R) (Homo sapiens, UniProt P42336, C420R)
T14 construct: purchased Eurofins DiscoverX (KINOMEscan)
Description: as §1

OSR1 = biological target: T15, OSR1 (Homo sapiens, UniProt O95747)
T15 construct: purchased Eurofins DiscoverX (KINOMEscan)
Description: as §1

NEK3 = biological target: T16, NEK3 (Homo sapiens, UniProt P51956)
T16 construct: purchased Eurofins DiscoverX (KINOMEscan)
T16 sequence (P51956 whole entry): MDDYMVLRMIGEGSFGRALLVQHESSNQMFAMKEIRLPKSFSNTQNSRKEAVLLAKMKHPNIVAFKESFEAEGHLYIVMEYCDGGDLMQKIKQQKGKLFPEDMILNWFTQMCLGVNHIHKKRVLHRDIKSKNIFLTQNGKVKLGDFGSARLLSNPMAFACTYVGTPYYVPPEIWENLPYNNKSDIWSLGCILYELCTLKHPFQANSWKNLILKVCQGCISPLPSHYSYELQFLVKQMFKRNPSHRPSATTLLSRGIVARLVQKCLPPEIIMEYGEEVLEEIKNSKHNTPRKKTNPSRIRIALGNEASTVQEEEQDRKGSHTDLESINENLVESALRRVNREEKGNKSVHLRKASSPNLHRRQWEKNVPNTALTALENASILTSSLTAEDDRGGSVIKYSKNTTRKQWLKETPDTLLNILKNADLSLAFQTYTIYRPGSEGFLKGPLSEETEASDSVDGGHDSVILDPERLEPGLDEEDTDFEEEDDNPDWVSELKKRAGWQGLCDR
Description: as §1

PCTK1 = biological target: T17, PCTK1 (Homo sapiens, UniProt Q00536)
T17 construct: purchased Eurofins DiscoverX (KINOMEscan)
T17 sequence (Q00536 whole entry): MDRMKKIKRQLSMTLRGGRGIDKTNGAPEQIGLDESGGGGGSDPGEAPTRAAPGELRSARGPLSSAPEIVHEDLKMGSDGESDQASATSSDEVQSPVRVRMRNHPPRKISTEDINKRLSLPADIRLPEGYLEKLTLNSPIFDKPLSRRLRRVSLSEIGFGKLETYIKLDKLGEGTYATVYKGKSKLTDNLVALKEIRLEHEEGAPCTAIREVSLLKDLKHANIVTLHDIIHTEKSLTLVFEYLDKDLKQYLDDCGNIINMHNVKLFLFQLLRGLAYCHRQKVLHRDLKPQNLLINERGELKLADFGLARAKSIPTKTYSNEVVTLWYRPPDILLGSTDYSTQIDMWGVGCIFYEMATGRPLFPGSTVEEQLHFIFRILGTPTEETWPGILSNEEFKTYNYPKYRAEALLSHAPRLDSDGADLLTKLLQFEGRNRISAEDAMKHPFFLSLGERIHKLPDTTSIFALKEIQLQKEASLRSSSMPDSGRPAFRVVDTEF
Description: as §1

BMPR1A = biological target: T18, BMPR1A (Homo sapiens, UniProt P36894)
T18 construct: purchased Eurofins DiscoverX (KINOMEscan)
Description: as §1

p38-beta = biological target: T19, p38-beta (Homo sapiens, UniProt Q15759)
T19 construct: purchased Eurofins DiscoverX (KINOMEscan)
Description: as §1

FGR = biological target: T20, FGR (Homo sapiens, UniProt P09769)
T20 construct: purchased Eurofins DiscoverX (KINOMEscan)
Description: as §1

CDK2 = biological target: T21, CDK2 (Homo sapiens, UniProt P24941)
T21 construct: purchased Eurofins DiscoverX (KINOMEscan)
Description: as §1

MEK4 = biological target: T22, MEK4 (Homo sapiens, UniProt P45985)
T22 construct: purchased Eurofins DiscoverX (KINOMEscan)
Description: as §1

DAPK1 = biological target: T23, DAPK1 (Homo sapiens, UniProt P53355)
T23 construct: purchased Eurofins DiscoverX (KINOMEscan)
Description: as §1

ABL1-phosphorylated = biological target: T24, ABL1-phosphorylated (Homo sapiens, UniProt P00519)
T24 construct: purchased Eurofins DiscoverX (KINOMEscan)
Description: as §1

ERN1 = biological target: T25, ERN1 (Homo sapiens, UniProt O75460)
T25 construct: purchased Eurofins DiscoverX (KINOMEscan)
Description: as §1

RET(V804L) = biological target: T26, RET(V804L) (Homo sapiens, UniProt P07949, V804L)
T26 construct: purchased Eurofins DiscoverX (KINOMEscan)
Description: as §1

FLT3 = biological target: T27, FLT3 (Homo sapiens, UniProt P36888)
T27 construct: purchased Eurofins DiscoverX (KINOMEscan)
T27 sequence (P36888 27-993): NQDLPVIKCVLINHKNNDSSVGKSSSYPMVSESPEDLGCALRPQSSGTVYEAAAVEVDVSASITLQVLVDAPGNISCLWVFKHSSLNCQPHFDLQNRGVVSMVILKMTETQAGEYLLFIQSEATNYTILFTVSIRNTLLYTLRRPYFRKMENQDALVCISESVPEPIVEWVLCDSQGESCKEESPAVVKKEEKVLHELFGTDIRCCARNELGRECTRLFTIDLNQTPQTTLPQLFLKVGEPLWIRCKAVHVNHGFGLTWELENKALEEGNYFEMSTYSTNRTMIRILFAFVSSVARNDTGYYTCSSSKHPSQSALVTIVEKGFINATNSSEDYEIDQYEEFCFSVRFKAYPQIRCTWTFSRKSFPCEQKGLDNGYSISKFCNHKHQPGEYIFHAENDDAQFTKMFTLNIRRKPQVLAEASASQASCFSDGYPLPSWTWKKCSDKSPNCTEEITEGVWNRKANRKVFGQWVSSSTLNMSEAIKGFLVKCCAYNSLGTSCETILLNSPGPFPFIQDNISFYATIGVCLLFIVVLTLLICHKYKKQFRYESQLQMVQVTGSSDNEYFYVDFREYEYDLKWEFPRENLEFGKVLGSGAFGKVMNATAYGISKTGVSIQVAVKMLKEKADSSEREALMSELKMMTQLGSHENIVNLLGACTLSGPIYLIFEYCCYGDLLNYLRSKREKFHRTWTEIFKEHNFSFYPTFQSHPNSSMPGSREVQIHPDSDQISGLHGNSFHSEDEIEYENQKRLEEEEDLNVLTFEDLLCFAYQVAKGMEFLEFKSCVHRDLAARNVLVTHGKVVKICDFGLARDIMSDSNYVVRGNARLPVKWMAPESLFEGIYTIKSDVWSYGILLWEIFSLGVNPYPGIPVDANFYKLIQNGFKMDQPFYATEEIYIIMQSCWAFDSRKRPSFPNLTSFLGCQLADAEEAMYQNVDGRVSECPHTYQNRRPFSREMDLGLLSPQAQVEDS
Description: as §1

[3] = biological target: T28, RSK2(Kin.Dom.2-C-terminal) (Homo sapiens, UniProt P51812)
T28 construct: RSK2(Kin.Dom.2-C-terminal); purchased Eurofins DiscoverX (KINOMEscan)
Description: as §1

PKN1 = biological target: T29, PKN1 (Homo sapiens, UniProt Q16512)
T29 construct: purchased Eurofins DiscoverX (KINOMEscan)
Description: as §1

ACVR1 = biological target: T30, ACVR1 (Homo sapiens, UniProt Q04771)
T30 construct: purchased Eurofins DiscoverX (KINOMEscan)
T30 sequence (Q04771 21-509): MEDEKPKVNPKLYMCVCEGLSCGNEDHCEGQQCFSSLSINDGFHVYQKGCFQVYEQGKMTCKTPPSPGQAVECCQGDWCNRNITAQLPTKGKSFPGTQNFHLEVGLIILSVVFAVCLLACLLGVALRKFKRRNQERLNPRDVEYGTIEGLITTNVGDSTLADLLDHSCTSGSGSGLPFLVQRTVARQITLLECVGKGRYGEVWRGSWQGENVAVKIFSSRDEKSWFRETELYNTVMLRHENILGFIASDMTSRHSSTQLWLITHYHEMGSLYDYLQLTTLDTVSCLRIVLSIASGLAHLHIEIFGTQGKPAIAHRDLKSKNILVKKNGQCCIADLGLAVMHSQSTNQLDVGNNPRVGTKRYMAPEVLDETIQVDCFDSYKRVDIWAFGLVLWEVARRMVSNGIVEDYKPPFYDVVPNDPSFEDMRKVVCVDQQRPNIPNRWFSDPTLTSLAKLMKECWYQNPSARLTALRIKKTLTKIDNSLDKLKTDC
Description: as §1

PFPK5(P.falciparum) = biological target: T31, PFPK5(P.falciparum) (Plasmodium falciparum, UniProt P61075)
T31 construct: purchased Eurofins DiscoverX (KINOMEscan)
Description: as §1

LATS1 = biological target: T32, LATS1 (Homo sapiens, UniProt O95835)
T32 construct: purchased Eurofins DiscoverX (KINOMEscan)
Description: as §1

IKK-alpha = biological target: T33, IKK-alpha (Homo sapiens, UniProt O15111)
T33 construct: purchased Eurofins DiscoverX (KINOMEscan)
Description: as §1

MAP3K1 = biological target: T34, MAP3K1 (Homo sapiens, UniProt Q13233)
T34 construct: purchased Eurofins DiscoverX (KINOMEscan)
Description: as §1

ACVRL1 = biological target: T35, ACVRL1 (Homo sapiens, UniProt P37023)
T35 construct: purchased Eurofins DiscoverX (KINOMEscan)
Description: as §1

S6K1 = biological target: T36, S6K1 (Homo sapiens, UniProt P23443)
T36 construct: purchased Eurofins DiscoverX (KINOMEscan)
T36 sequence (P23443 whole entry): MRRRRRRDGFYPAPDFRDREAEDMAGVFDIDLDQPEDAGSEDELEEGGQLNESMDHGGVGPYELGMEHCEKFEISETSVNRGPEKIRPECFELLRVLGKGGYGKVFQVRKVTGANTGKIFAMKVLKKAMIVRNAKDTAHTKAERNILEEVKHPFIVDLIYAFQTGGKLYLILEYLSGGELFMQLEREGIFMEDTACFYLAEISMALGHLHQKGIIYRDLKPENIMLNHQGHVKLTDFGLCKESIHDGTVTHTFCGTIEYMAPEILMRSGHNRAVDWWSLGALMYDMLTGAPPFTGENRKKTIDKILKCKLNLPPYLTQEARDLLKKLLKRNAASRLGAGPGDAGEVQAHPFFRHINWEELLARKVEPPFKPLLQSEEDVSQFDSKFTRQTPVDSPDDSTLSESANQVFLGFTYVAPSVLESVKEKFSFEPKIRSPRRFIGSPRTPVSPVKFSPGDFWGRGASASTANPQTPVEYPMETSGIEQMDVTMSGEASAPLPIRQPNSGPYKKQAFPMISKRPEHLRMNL
Description: as §1

SGK2 = biological target: T37, SGK2 (Homo sapiens, UniProt Q9HBY8)
T37 construct: purchased Eurofins DiscoverX (KINOMEscan)
Description: as §1

LIMK2 = biological target: T38, LIMK2 (Homo sapiens, UniProt P53671)
T38 construct: purchased Eurofins DiscoverX (KINOMEscan)
T38 sequence (P53671 whole entry): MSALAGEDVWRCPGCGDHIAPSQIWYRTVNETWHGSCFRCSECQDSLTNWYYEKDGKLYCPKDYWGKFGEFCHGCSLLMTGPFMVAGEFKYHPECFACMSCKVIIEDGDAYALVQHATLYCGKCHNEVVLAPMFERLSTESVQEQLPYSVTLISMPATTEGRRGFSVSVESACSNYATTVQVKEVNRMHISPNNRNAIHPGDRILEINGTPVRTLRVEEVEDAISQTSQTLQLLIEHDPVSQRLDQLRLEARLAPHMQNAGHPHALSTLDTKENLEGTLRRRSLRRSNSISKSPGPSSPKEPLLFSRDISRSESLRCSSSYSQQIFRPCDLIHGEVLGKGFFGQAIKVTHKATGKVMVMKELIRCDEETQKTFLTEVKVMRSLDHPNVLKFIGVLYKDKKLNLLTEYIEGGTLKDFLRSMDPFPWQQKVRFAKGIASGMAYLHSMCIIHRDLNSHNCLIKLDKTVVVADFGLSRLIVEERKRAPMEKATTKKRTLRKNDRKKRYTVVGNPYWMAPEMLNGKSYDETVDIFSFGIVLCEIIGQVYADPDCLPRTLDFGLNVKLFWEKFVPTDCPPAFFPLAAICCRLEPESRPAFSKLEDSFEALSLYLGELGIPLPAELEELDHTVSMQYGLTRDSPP
Description: as §1

ERBB4 = biological target: T39, ERBB4 (Homo sapiens, UniProt Q15303)
T39 construct: purchased Eurofins DiscoverX (KINOMEscan)
T39 sequence (Q15303 26-1308): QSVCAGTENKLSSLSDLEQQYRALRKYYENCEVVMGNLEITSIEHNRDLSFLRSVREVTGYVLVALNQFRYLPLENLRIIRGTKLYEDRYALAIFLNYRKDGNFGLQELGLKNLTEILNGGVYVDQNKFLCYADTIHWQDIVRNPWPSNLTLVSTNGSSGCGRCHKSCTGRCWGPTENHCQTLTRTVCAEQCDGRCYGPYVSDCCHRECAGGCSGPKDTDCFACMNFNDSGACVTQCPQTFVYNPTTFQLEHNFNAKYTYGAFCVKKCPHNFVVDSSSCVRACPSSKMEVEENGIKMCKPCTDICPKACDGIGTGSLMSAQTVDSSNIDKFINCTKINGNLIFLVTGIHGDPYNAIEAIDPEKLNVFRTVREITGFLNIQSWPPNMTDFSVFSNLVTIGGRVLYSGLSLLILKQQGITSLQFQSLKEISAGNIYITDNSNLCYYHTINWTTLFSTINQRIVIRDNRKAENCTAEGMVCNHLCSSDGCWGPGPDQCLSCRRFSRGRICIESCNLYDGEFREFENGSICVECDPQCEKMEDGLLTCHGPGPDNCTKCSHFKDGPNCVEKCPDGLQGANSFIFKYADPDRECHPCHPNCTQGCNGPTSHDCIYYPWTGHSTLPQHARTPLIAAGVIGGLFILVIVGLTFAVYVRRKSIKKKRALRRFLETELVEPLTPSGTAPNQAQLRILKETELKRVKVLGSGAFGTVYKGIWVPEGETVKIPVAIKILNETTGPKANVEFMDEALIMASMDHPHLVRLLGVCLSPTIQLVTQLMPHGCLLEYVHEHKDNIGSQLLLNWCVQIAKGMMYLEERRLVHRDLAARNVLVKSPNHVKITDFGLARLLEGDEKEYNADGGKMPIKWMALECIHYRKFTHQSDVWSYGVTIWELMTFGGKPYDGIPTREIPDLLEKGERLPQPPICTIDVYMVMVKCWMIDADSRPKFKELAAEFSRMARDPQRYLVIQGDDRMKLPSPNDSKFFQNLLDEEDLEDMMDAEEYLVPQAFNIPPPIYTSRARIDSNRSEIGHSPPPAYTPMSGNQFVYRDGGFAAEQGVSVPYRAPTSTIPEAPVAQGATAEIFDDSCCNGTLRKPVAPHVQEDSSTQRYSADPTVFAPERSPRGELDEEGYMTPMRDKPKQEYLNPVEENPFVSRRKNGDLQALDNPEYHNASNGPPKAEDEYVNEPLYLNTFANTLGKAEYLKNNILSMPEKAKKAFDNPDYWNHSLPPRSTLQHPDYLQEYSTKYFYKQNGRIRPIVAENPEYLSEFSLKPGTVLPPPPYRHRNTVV
Description: as §1

CSNK2A2 = biological target: T40, CSNK2A2 (Homo sapiens, UniProt P19784)
T40 construct: purchased Eurofins DiscoverX (KINOMEscan)
Description: as §1

PRKCE = biological target: T41, PRKCE (Homo sapiens, UniProt Q02156)
T41 construct: purchased Eurofins DiscoverX (KINOMEscan)
Description: as §1

ROCK1 = biological target: T42, ROCK1 (Homo sapiens, UniProt Q13464)
T42 construct: purchased Eurofins DiscoverX (KINOMEscan)
Description: as §1

Compound: Brc1ccc2nccc(Nc3ccc4cn[nH]c4c3)c2c1 [Compound 35, 6-Bromo-N-(1H-indazol-6-yl)quinolin-4-amine]
- activity at 1 µM (CSNK1G2): 100%
- activity at 1 µM (ERK3): 100%
- activity at 1 µM (DYRK1A): 77%
- activity at 1 µM (KIT(V559D,T670I)): 100%
- activity at 1 µM (PKN2): 99%
- activity at 1 µM (TNIK): 97%
- activity at 1 µM (TAK1): 100%
- activity at 1 µM (YES): 100%
- activity at 1 µM [1]: 100%
- activity at 1 µM (MYLK): 100%
- activity at 1 µM (SGK3): 100%
- activity at 1 µM (FGFR4): 100%
- activity at 1 µM [2]: 100%
- activity at 1 µM (PIK3CA(C420R)): 100%
- activity at 1 µM (OSR1): 76%
- activity at 1 µM (NEK3): 89%
- activity at 1 µM (PCTK1): 98%
- activity at 1 µM (BMPR1A): 100%
- activity at 1 µM (p38-beta): 100%
- activity at 1 µM (FGR): 100%
- activity at 1 µM (CDK2): 100%
- activity at 1 µM (MEK4): 100%
- activity at 1 µM (DAPK1): 100%
- activity at 1 µM (ABL1-phosphorylated): 46%
- activity at 1 µM (ERN1): 91%
- activity at 1 µM (RET(V804L)): 97%
- activity at 1 µM (FLT3): 100%
- activity at 1 µM [3]: 100%
- activity at 1 µM (PKN1): 100%
- activity at 1 µM (ACVR1): 97%
- activity at 1 µM (PFPK5(P.falciparum)): 100%
- activity at 1 µM (LATS1): 100%
- activity at 1 µM (IKK-alpha): 100%
- activity at 1 µM (MAP3K1): 86%
- activity at 1 µM (ACVRL1): 100%
- activity at 1 µM (S6K1): 91%
- activity at 1 µM (SGK2): 96%
- activity at 1 µM (LIMK2): 100%
- activity at 1 µM (ERBB4): 100%
- activity at 1 µM (CSNK2A2): 100%
- activity at 1 µM (PRKCE): 95%
- activity at 1 µM (ROCK1): 71%
